The numbers were not newly measured in US20160279133A1 (Farmalider, S.A., priority 2015, published 2016), which cites them from elsewhere.

Structures can show the parent of a compound that is named as a salt.

One series deals with male sexual dysfunction. To be noted: administered orally.

Turning to `CCCc1nn(C)c2c(=O)[nH]c(-c3cc(S(=O)(=O)N4CCN(C)CC4)ccc3OCC)nc12` [Sildenafil citrate], the solubility in water entry is “relatively insoluble”. On to `CCCc1nn(C)c2c(=O)[nH]c(-c3cc(S(=O)(=O)N4CCN(C)CC4)ccc3OCC)nc12` [Sildenafil, 5-[2-ethoxy-5-(4-methylpiperazin-1-yl-sulfonyl)phenyl]-1-methyl-3-n-propyl-1,6-dihydro-7H-pyrazolo[4,3-d]pyrimidin-7-one], for which the “efficacy in the treatment of male sexual dysfunction” value in the series on male sexual dysfunction is recorded as “effective treatment”.
